Reference: patent US10093630B2, “Pyrazole compounds and methods of making and using same” (ABIDE THERAPEUTICS, INC., priority 2014, dated 2018)

Tests used:
Assay in all cases: In vitro competitive activity-based protein profiling (gel-based, FP-Rh or HT-01 probe)
Format in all cases: biochemical
MAGL = biological target: T1, MAGL (Mus musculus, UniProt O35678); conditions: for inhibition at 1 µM: 1 μM inhibitor; for inhibition at 10 µM: 10 μM inhibitor; for IC50: mouse brain membrane fraction or cell lysates, 30 min preincubation at 37° C., read-out: Mouse (IC50 value, nM) MAGL
T1 construct: Proteomes (mouse brain membrane fraction or cell lysates); from tissue; host or cells: mouse brain membrane fraction (or cell lysates, not specified)
T1 sequence (O35678 1-303): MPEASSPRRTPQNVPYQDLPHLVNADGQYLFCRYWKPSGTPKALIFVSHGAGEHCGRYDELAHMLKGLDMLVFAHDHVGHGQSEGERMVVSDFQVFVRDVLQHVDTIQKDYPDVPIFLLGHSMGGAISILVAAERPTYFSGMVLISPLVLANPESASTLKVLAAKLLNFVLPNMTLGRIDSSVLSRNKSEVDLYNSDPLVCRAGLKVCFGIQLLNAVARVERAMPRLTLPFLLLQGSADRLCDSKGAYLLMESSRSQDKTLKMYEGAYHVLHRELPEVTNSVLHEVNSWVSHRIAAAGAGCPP
How it was run: (§1)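 Gel-based read-out: fluorescent band intensity after SDS-PAGE reflected remaining hydrolase activity. Inhibitors were preincubated 30 min at 37° C with 1.0 mg/mL mouse brain membrane or lysate proteome before a further 30 min at 37° C with FP-Rh or HT-01 probe.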

PLA2G7 = biological target: T2, PLA2G7 (Mus musculus, UniProt Q60963); conditions: for inhibition at 1 µM: 1 μM inhibitor, read-out: % Inhibition at 1 μM, D = PLA2G7; for inhibition at 10 µM: 10 μM inhibitor, read-out: % Inhibition at 10 μM, D = PLA2G7
T2 construct: Proteomes (mouse brain membrane fraction or cell lysates); from tissue; host or cells: mouse brain membrane fraction (or cell lysates, not specified)
T2 sequence (Q60963 22-440): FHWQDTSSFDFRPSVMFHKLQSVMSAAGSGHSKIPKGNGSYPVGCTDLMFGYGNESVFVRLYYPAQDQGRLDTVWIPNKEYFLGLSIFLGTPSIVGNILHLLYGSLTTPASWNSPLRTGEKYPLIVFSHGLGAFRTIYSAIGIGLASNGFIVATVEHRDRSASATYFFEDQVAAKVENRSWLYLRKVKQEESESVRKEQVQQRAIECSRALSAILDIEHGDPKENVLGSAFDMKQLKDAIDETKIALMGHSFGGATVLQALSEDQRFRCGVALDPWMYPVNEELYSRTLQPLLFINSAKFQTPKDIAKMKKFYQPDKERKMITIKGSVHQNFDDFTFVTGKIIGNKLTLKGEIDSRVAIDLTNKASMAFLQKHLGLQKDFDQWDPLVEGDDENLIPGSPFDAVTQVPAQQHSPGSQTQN
How it was run: as §1

FAAH = biological target: T3, FAAH (Mus musculus, UniProt O08914); conditions: for inhibition at 1 µM: 1 μM inhibitor, read-out: % Inhibition at 1 μM, B = FAAH; for inhibition at 10 µM: 10 μM inhibitor, read-out: % Inhibition at 10 μM, B = FAAH; for IC50: mouse brain membrane fraction or cell lysates, 30 min preincubation at 37° C., read-out: Mouse (IC50 value, nM) FAAH
T3 construct: Proteomes (mouse brain membrane fraction or cell lysates); from tissue; host or cells: mouse brain membrane fraction (or cell lysates, not specified)
T3 sequence (O08914 1-579): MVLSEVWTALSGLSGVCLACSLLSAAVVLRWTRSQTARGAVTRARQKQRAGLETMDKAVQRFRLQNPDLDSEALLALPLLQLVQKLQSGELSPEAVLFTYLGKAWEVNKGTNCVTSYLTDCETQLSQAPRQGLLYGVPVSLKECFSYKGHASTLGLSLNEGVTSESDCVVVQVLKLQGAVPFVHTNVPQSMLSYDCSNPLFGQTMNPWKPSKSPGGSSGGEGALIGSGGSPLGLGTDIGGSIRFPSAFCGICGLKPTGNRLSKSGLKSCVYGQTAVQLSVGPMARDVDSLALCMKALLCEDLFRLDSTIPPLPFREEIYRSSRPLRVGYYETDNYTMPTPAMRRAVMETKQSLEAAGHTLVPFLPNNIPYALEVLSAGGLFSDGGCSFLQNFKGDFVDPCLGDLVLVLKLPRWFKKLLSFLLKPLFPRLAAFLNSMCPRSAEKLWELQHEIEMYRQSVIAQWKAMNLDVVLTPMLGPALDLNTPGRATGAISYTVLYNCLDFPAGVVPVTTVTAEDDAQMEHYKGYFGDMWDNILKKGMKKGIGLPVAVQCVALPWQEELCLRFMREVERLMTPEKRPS
How it was run: as §1

ABHD6 = biological target: T4, ABHD6 (Mus musculus, UniProt Q8R2Y0); conditions: for inhibition at 1 µM: 1 μM inhibitor, read-out: % Inhibition at 1 μM, C = ABHD6; for inhibition at 10 µM: 10 μM inhibitor, read-out: % Inhibition at 10 μM, C = ABHD6; for IC50: mouse brain membrane fraction or cell lysates, 30 min preincubation at 37° C., read-out: Mouse (IC50 value, nM) ABHD6
T4 construct: Proteomes (mouse brain membrane fraction or cell lysates); from tissue; host or cells: mouse brain membrane fraction (or cell lysates, not specified)
T4 sequence (Q8R2Y0 1-336): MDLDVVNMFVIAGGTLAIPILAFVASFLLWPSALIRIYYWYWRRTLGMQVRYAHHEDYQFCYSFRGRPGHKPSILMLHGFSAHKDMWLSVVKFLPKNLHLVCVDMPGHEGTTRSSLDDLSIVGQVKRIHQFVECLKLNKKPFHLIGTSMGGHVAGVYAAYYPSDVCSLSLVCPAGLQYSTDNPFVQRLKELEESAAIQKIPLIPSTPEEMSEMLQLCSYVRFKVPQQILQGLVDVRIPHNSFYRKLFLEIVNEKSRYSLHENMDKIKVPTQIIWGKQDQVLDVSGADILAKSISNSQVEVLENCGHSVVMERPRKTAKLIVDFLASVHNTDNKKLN
How it was run: as §1

Cc1cc(-c2ccccc2)ccc1CN1CCN(C(=O)n2cc(C(=O)N3CCOCC3)cn2)CC1 [Example 57, (4-((3-Methyl-[1,1′-biphenyl]-4-yl)methyl)piperazin-1-yl)(4-(morpholine-4-carbonyl)-1H-pyrazol-1-yl)methanone]
inhibition at 1 µM (MAGL): > 75%
inhibition at 10 µM (MAGL): > 75%
IC50 (MAGL): 100 to 1000 nM
inhibition at 1 µM (PLA2G7): < 25%
inhibition at 10 µM (PLA2G7): > 75%
inhibition at 1 µM (FAAH): > 75%
inhibition at 10 µM (FAAH): > 75%
IC50 (FAAH): < 100 nM
inhibition at 1 µM (ABHD6): > 75%
inhibition at 10 µM (ABHD6): > 75%
IC50 (ABHD6): 100 to 1000 nM

O=C(N1CCN(Cc2ccc3c(c2)OCO3)CC1)n1cc(-c2ccccc2)cn1 [Example 58, (4-(Benzo[d][1,3]dioxol-5-ylmethyl)piperazin-1-yl)(4-phenyl-1H-pyrazol-1-yl)methanone]
inhibition at 1 µM (MAGL): < 25%
inhibition at 10 µM (MAGL): > 75%
inhibition at 1 µM (PLA2G7): > 75%
inhibition at 10 µM (PLA2G7): > 75%
inhibition at 1 µM (FAAH): > 75%
inhibition at 10 µM (FAAH): > 75%
inhibition at 1 µM (ABHD6): > 75%
inhibition at 10 µM (ABHD6): > 75%
IC50 (ABHD6): 100 to 1000 nM

O=C(N1CCN(Cc2ccncc2)CC1)n1cc(-c2ccccc2)cn1 [Example 59, (4-Phenyl-1H-pyrazol-1-yl)(4-(pyridin-4-ylmethyl)piperazin-1-yl)methanone]
inhibition at 10 µM (MAGL): 25 to 75%
inhibition at 1 µM (PLA2G7): > 75%
inhibition at 10 µM (PLA2G7): > 75%
inhibition at 10 µM (FAAH): > 75%
inhibition at 1 µM (ABHD6): > 75%
inhibition at 10 µM (ABHD6): > 75%
IC50 (ABHD6): 100 to 1000 nM

O=C(N1CCN(Cc2cccnc2)CC1)n1cc(-c2ccccc2)cn1 [Example 60, (4-Phenyl-1H-pyrazol-1-yl)(4-(pyridin-3-ylmethyl)piperazin-1-yl)methanone]
inhibition at 10 µM (MAGL): 25 to 75%
inhibition at 1 µM (PLA2G7): > 75%
inhibition at 10 µM (PLA2G7): > 75%
inhibition at 10 µM (FAAH): > 75%
inhibition at 1 µM (ABHD6): > 75%
inhibition at 10 µM (ABHD6): > 75%
IC50 (ABHD6): 100 to 1000 nM

O=C(N1CCN(Cc2ccccn2)CC1)n1cc(-c2ccccc2)cn1 [Example 61, (4-Phenyl-1H-pyrazol-1-yl)(4-(pyridin-2-ylmethyl)piperazin-1-yl)methanone]
inhibition at 10 µM (MAGL): < 25%
inhibition at 1 µM (PLA2G7): > 75%
inhibition at 10 µM (PLA2G7): > 75%
inhibition at 10 µM (FAAH): > 75%
inhibition at 1 µM (ABHD6): > 75%
inhibition at 10 µM (ABHD6): > 75%

O=C(N1CCN(Cc2ccncn2)CC1)n1cc(-c2ccccc2)cn1 [Example 62, (4-Phenyl-1H-pyrazol-1-yl)(4-(pyrimidin-4-ylmethyl)piperazin-1-yl)methanone]
inhibition at 10 µM (MAGL): < 25%
inhibition at 1 µM (PLA2G7): > 75%
inhibition at 10 µM (PLA2G7): > 75%
inhibition at 10 µM (FAAH): > 75%
inhibition at 1 µM (ABHD6): > 75%
inhibition at 10 µM (ABHD6): > 75%

O=C(N1CCN(Cc2nccs2)CC1)n1cc(-c2ccccc2)cn1 [Example 63, (4-Phenyl-1H-pyrazol-1-yl)(4-(thiazol-2-ylmethyl)piperazin-1-yl)methanone]
inhibition at 10 µM (MAGL): < 25%
inhibition at 1 µM (PLA2G7): > 75%
inhibition at 10 µM (PLA2G7): > 75%
inhibition at 10 µM (FAAH): > 75%
inhibition at 1 µM (ABHD6): > 75%
inhibition at 10 µM (ABHD6): > 75%
IC50 (ABHD6): 100 to 1000 nM

O=C(N1CCN(Cc2cncnc2)CC1)n1cc(-c2ccccc2)cn1 [Example 64, (4-Phenyl-1H-pyrazol-1-yl)(4-(pyrimidin-5-ylmethyl)piperazin-1-yl)methanone]
inhibition at 10 µM (MAGL): < 25%
inhibition at 1 µM (PLA2G7): > 75%
inhibition at 10 µM (PLA2G7): > 75%
inhibition at 10 µM (FAAH): < 25%
inhibition at 1 µM (ABHD6): > 75%
inhibition at 10 µM (ABHD6): > 75%

Cc1cc(-c2ccccc2)ccc1CN1CCN(C(=O)n2cc(-c3ccccc3)cn2)CC1 [Example 65, (4-((3-Methyl-[1,1′-biphenyl]-4-yl)methyl)piperazin-1-yl)(4-phenyl-1H-pyrazol-1-yl)methanone]
inhibition at 1 µM (MAGL): < 25%
inhibition at 10 µM (MAGL): > 75%
inhibition at 1 µM (PLA2G7): > 75%
inhibition at 10 µM (PLA2G7): > 75%
inhibition at 1 µM (FAAH): > 75%
inhibition at 10 µM (FAAH): > 75%
inhibition at 1 µM (ABHD6): > 75%
inhibition at 10 µM (ABHD6): > 75%

O=C(c1cnn(C(=O)N2CCN(C(c3ccc(Cl)cc3)c3ccc(Cl)cc3)CC2)c1)N1CCOCC1 [Example 67, (4-(Bis(4-chlorophenyl)methyl)piperazin-1-yl)(4-(morpholine-4-carbonyl)-1H-pyrazol-1-yl)methanone]
inhibition at 1 µM (MAGL): > 75%
inhibition at 10 µM (MAGL): > 75%
IC50 (MAGL): 100 to 1000 nM
inhibition at 1 µM (PLA2G7): > 75%
inhibition at 10 µM (PLA2G7): > 75%
inhibition at 1 µM (FAAH): < 25%
inhibition at 10 µM (FAAH): 25 to 75%
IC50 (FAAH): > 1000 nM
inhibition at 1 µM (ABHD6): > 75%
inhibition at 10 µM (ABHD6): > 75%
IC50 (ABHD6): 100 to 1000 nM

O=C(c1cnn(C(=O)N2CCN(Cc3ccc4c(c3)OCO4)CC2)c1)N1CCCCC1 [Example 69, (4-(Benzo[d][1,3]dioxol-5-ylmethyl)piperazin-1-yl)(4-(piperidine-1-carbonyl)-1H-pyrazol-1-yl)methanone]
inhibition at 1 µM (MAGL): 25 to 75%
inhibition at 10 µM (MAGL): > 75%
inhibition at 1 µM (PLA2G7): > 75%
inhibition at 10 µM (PLA2G7): > 75%
inhibition at 1 µM (FAAH): > 75%
inhibition at 10 µM (FAAH): > 75%
inhibition at 1 µM (ABHD6): > 75%
inhibition at 10 µM (ABHD6): > 75%

O=C(c1cnn(C(=O)N2CCN(Cc3ccncc3)CC2)c1)N1CCCCC1 [Example 70, Piperidin-1-yl(1-(4-(pyridin-4-ylmethyl)piperazine-1-carbonyl)-1H-pyrazol-4-yl)methanone]
inhibition at 1 µM (MAGL): < 25%
inhibition at 10 µM (MAGL): < 25%
inhibition at 1 µM (PLA2G7): > 75%
inhibition at 10 µM (PLA2G7): > 75%
inhibition at 1 µM (FAAH): < 25%
inhibition at 10 µM (FAAH): 25 to 75%
inhibition at 1 µM (ABHD6): 25 to 75%
inhibition at 10 µM (ABHD6): > 75%

O=C(c1cnn(C(=O)N2CCN(Cc3cccnc3)CC2)c1)N1CCCCC1 [Example 71, Piperidin-1-yl(1-(4-(pyridin-3-ylmethyl)piperazine-1-carbonyl)-1H-pyrazol-4-yl)methanone]
inhibition at 1 µM (MAGL): < 25%
inhibition at 10 µM (MAGL): < 25%
inhibition at 1 µM (PLA2G7): > 75%
inhibition at 10 µM (PLA2G7): > 75%
inhibition at 1 µM (FAAH): < 25%
inhibition at 10 µM (FAAH): 25 to 75%
inhibition at 1 µM (ABHD6): 25 to 75%
inhibition at 10 µM (ABHD6): > 75%

O=C(c1cnn(C(=O)N2CCN(Cc3ccccn3)CC2)c1)N1CCCCC1 [Example 72, Piperidin-1-yl(1-(4-(pyridin-2-ylmethyl)piperazine-1-carbonyl)-1H-pyrazol-4-yl)methanone]
inhibition at 1 µM (MAGL): < 25%
inhibition at 10 µM (MAGL): < 25%
inhibition at 1 µM (PLA2G7): > 75%
inhibition at 10 µM (PLA2G7): > 75%
inhibition at 1 µM (FAAH): < 25%
inhibition at 10 µM (FAAH): > 75%
inhibition at 1 µM (ABHD6): < 25%
inhibition at 10 µM (ABHD6): > 75%
